Reference: ChEMBL document CHEMBL1287733, “Implication of the disulfide bridge in trypsin inhibitor SFTI-1 in its interaction with serine proteinases” (Bioorg Med Chem, 2010)
Activity calls are given as the source filed them. The calls are words filed in the database; no cut-off is given here. Starred links: 1 amine or outer side, 2 acyl side, 3 side chain; linkers in the order of their positions; H or OH if unused. Non-standard residues stand in square brackets, D forms with d. Residues, ends and D or L forms follow the SMILES beside them. N(2-mercaptoethyl)Gly = O=C(CN(CCS[*:3])[*:1])[*:2]; hCys = N[C@@H](CCS)C(=O)O; Nphe = O=C(O)CNCc1ccccc1; Nlys = NCCCCNCC(=O)O

Species: Bos taurus
Assay: Inhibition of bovine trypsin

Ka	Compound
9.9 ×10⁹ /M	CC[C@H](C)[C@@H]1NC(=O)[C@@H]2CCCN2C(=O)[C@@H]2CCCN2C(=O)[C@H]([C@@H](C)CC)NC(=O)[C@H](CO)NC(=O)[C@H](CCCCN)NC(=O)[C@H]([C@@H](C)O)NC(=O)[C@H](CS)NC(=O)[C@H](CCCNC(=N)N)NC(=O)CNC(=O)[C@H](CC(=O)O)NC(=O)[C@@H]2CCCN2C(=O)[C@H](Cc2ccccc2)NC(=O)[C@H](CS)NC1=O
inactive	CC[C@H](C)[C@@H]1NC(=O)[C@@H]2CCCN2C(=O)[C@@H]2CCCN2C(=O)[C@H]([C@@H](C)CC)NC(=O)[C@H](CO)NC(=O)CN(CCCCN)C(=O)[C@H]([C@@H](C)O)NC(=O)CN(CCS)C(=O)[C@H](CCCNC(=N)N)NC(=O)CNC(=O)[C@H](CC(=O)O)NC(=O)[C@@H]2CCCN2C(=O)[C@H](Cc2ccccc2)NC(=O)CN(CCS)C1=O (cyclo(DGR[N(2-mercaptoethyl)Gly]T[Nlys]SIPPI[N(2-mercaptoethyl)Gly]FP))
inactive	CC[C@H](C)[C@@H]1NC(=O)[C@@H]2CCCN2C(=O)[C@@H]2CCCN2C(=O)[C@H]([C@@H](C)CC)NC(=O)[C@H](CO)NC(=O)[C@H](CCCCN)NC(=O)[C@H]([C@@H](C)O)NC(=O)CN(CCS)C(=O)[C@H](CCCNC(=N)N)NC(=O)CNC(=O)[C@H](CC(=O)O)NC(=O)[C@@H]2CCCN2C(=O)[C@H](Cc2ccccc2)NC(=O)CN(CCS)C1=O (cyclo(DGR[N(2-mercaptoethyl)Gly]TKSIPPI[N(2-mercaptoethyl)Gly]FP))
1.1 ×10¹⁰ /M	CC[C@H](C)[C@@H]1NC(=O)[C@@H]2CCCN2C(=O)[C@@H]2CCCN2C(=O)[C@H]([C@@H](C)CC)NC(=O)[C@H](CO)NC(=O)[C@H](CCCCN)NC(=O)[C@H]([C@@H](C)O)NC(=O)[C@@H]2CSSC[C@H](NC1=O)C(=O)N[C@@H](Cc1ccccc1)C(=O)N1CCC[C@H]1C(=O)N[C@@H](CC(=O)O)C(=O)NCC(=O)N[C@@H](CCCNC(=N)N)C(=O)N2

Species: Bos taurus
Assay: Inhibition of bovine chymotrypsin

Ka	Compound
4.9 ×10⁶ /M	CC[C@H](C)[C@@H]1NC(=O)[C@@H]2CCCN2C(=O)[C@@H]2CCCN2C(=O)[C@H]([C@@H](C)CC)NC(=O)[C@H](CO)NC(=O)[C@H](CCCCN)NC(=O)[C@H]([C@@H](C)O)NC(=O)[C@H](CS)NC(=O)[C@H](CCCNC(=N)N)NC(=O)CNC(=O)[C@H](CC(=O)O)NC(=O)[C@@H]2CCCN2C(=O)[C@H](Cc2ccccc2)NC(=O)[C@H](CS)NC1=O
inactive	CC[C@H](C)[C@@H]1NC(=O)[C@@H]2CCCN2C(=O)[C@@H]2CCCN2C(=O)[C@H]([C@@H](C)CC)NC(=O)[C@H](CO)NC(=O)[C@H](Cc2ccccc2)NC(=O)[C@H]([C@@H](C)O)NC(=O)CN(CCS)C(=O)[C@H](CCCNC(=N)N)NC(=O)CNC(=O)[C@H](CC(=O)O)NC(=O)[C@@H]2CCCN2C(=O)[C@H](Cc2ccccc2)NC(=O)CN(CCS)C1=O (cyclo(DGR[N(2-mercaptoethyl)Gly]TFSIPPI[N(2-mercaptoethyl)Gly]FP))
7.56 ×10⁹ /M	CC[C@H](C)[C@@H]1NC(=O)[C@@H]2CCCN2C(=O)[C@@H]2CCCN2C(=O)[C@H]([C@@H](C)CC)NC(=O)[C@H](CO)NC(=O)[C@H](Cc2ccccc2)NC(=O)[C@H]([C@@H](C)O)NC(=O)[C@H](CCS)NC(=O)[C@H](CCCNC(=N)N)NC(=O)CNC(=O)[C@H](CC(=O)O)NC(=O)[C@@H]2CCCN2C(=O)[C@H](Cc2ccccc2)NC(=O)[C@H](CCS)NC1=O (cyclo(DGR[hCys]TFSIPPI[hCys]FP))
3.9 ×10⁸ /M	CC[C@H](C)[C@@H]1NC(=O)[C@@H]2CCCN2C(=O)[C@@H]2CCCN2C(=O)[C@H]([C@@H](C)CC)NC(=O)[C@H](CO)NC(=O)CN(Cc2ccccc2)C(=O)[C@H]([C@H](C)O)NC(=O)[C@H](CS)NC(=O)[C@H](CCCNC(=N)N)NC(=O)CNC(=O)[C@H](CC(=O)O)NC(=O)[C@@H]2CCCN2C(=O)[C@H](Cc2ccccc2)NC(=O)[C@H](CS)NC1=O
4.79 ×10⁸ /M	CC[C@H](C)[C@@H]1NC(=O)[C@@H]2CCCN2C(=O)[C@@H]2CCCN2C(=O)[C@H]([C@@H](C)CC)NC(=O)[C@H](CO)NC(=O)[C@H](Cc2ccccc2)NC(=O)[C@H]([C@@H](C)O)NC(=O)[C@H](CS)NC(=O)[C@H](CCCNC(=N)N)NC(=O)CNC(=O)[C@H](CC(=O)O)NC(=O)[C@@H]2CCCN2C(=O)[C@H](Cc2ccccc2)NC(=O)CN(CCS)C1=O (cyclo(CTFSIPPI[N(2-mercaptoethyl)Gly]FPDGR))
1.15 ×10⁵ /M	CC[C@H](C)[C@@H]1NC(=O)[C@@H]2CCCN2C(=O)[C@@H]2CCCN2C(=O)[C@H]([C@@H](C)CC)NC(=O)[C@H](CO)NC(=O)CN(Cc2ccccc2)C(=O)[C@H]([C@@H](C)O)NC(=O)[C@@H](C(C)(C)S)NC(=O)[C@H](CCCNC(=N)N)NC(=O)CNC(=O)[C@H](CC(=O)O)NC(=O)[C@@H]2CCCN2C(=O)[C@H](Cc2ccccc2)NC(=O)[C@H](CS)NC1=O
inactive	CC[C@H](C)[C@@H]1NC(=O)[C@@H]2CCCN2C(=O)[C@@H]2CCCN2C(=O)[C@H]([C@@H](C)CC)NC(=O)[C@H](CO)NC(=O)[C@H](Cc2ccccc2)NC(=O)[C@H]([C@@H](C)O)NC(=O)CN(CCS)C(=O)[C@H](CCCNC(=N)N)NC(=O)CNC(=O)[C@H](CC(=O)O)NC(=O)[C@@H]2CCCN2C(=O)[C@H](Cc2ccccc2)NC(=O)[C@H](CS)NC1=O (cyclo(CFPDGR[N(2-mercaptoethyl)Gly]TFSIPPI))
3.11 ×10⁵ /M	CC[C@H](C)[C@@H]1NC(=O)[C@@H]2CCCN2C(=O)[C@@H]2CCCN2C(=O)[C@H]([C@@H](C)CC)NC(=O)[C@H](CO)NC(=O)CN(Cc2ccccc2)C(=O)[C@H]([C@@H](C)O)NC(=O)[C@@H](C(C)(C)S)NC(=O)[C@H](CCCNC(=N)N)NC(=O)CNC(=O)[C@H](CC(=O)O)NC(=O)[C@@H]2CCCN2C(=O)[C@H](Cc2ccccc2)NC(=O)[C@@H](C(C)(C)S)NC1=O
inactive	CC[C@H](C)[C@@H]1NC(=O)[C@@H]2CCCN2C(=O)[C@@H]2CCCN2C(=O)[C@H]([C@@H](C)CC)NC(=O)[C@H](CO)NC(=O)CN(Cc2ccccc2)C(=O)[C@H]([C@@H](C)O)NC(=O)CN(CCS)C(=O)[C@H](CCCNC(=N)N)NC(=O)CNC(=O)[C@H](CC(=O)O)NC(=O)[C@@H]2CCCN2C(=O)[C@H](Cc2ccccc2)NC(=O)CN(CCS)C1=O (cyclo(DGR[N(2-mercaptoethyl)Gly]T[Nphe]SIPPI[N(2-mercaptoethyl)Gly]FP))
5.2 ×10⁶ /M	CC[C@H](C)[C@@H]1NC(=O)[C@@H]2CCCN2C(=O)[C@@H]2CCCN2C(=O)[C@H]([C@@H](C)CC)NC(=O)[C@H](CO)NC(=O)[C@H](CCCCN)NC(=O)[C@H]([C@@H](C)O)NC(=O)[C@@H]2CSSC[C@H](NC1=O)C(=O)N[C@@H](Cc1ccccc1)C(=O)N1CCC[C@H]1C(=O)N[C@@H](CC(=O)O)C(=O)NCC(=O)N[C@@H](CCCNC(=N)N)C(=O)N2
